The values below come from article PMC12040169 (PLOS Biology, 2025).

This series in a line: in vitro. Conditions: human, hela cells, % viability.

One may read the viability as a read-out of living cells in per cent, often relative to untreated cells. For `N#CCCN(C(=O)NCc1ccc(F)cc1)C1CCCCC1` [CBK156372], the viability at 28.5 h, 10 µM is 86.5%. `CC(C)CCNC(=O)N(CCC#N)C1CCCCC1` [CBK156378]: the viability at 28.5 h, 10 µM was found to be 91.6%. Turning to `N#CCCN(C(=O)NCCCN1CCCC1=O)C1CCCCC1` [CBK156379], the viability at 28.5 h, 10 µM was determined as 85.5%. Turning to `CCOC(=O)N1CCC(NC(=O)N(CCC#N)C2CCCCC2)CC1` [CBK156384], the viability at 28.5 h, 10 µM is 90.9%. Consider `O=C(NCc1cccc(C(F)(F)F)c1)N1CCN(c2ccc(F)cc2)CC1` [CBK156390], for which the viability at 28.5 h, 10 µM was 89.4%. Turning to `Cc1cnc(CNC(=O)N2CCN(c3ccc(F)cc3)CC2)cn1` [CBK156392], the viability at 28.5 h, 10 µM worked out at 93.7%.

Turning to `O=C(NCCc1c[nH]cn1)N1CCN(c2ccc(F)cc2)CC1` [CBK156394], the viability at 28.5 h, 10 µM amounted to 85.1%. Take `O=C(Nc1cccnc1)N1CCN(c2ccc(F)cc2)CC1` [CBK156427]: the viability at 28.5 h, 10 µM amounted to 92.7%. Consider `CCOC(=O)N1CCC(NC(=O)N2CCN(c3ccc(F)cc3)CC2)CC1` [CBK156429], for which the viability at 28.5 h, 10 µM was found to be 106%. For `CN1CCN(CCCNC(=O)N2CCN(c3cc(C(F)(F)F)ccn3)CC2)CC1` [CBK156431], the viability at 28.5 h, 10 µM came out at 93.7%. Next, `O=C(NCC1COc2ccccc2O1)N1CCN(c2cc(C(F)(F)F)ccn2)CC1` (stereo not shown) [CBK156432]: 88.2%; `O=C(NCc1ccc(Cl)c(Cl)c1)N1CCN(c2cc(C(F)(F)F)ccn2)CC1` [CBK156434]: 94.3%; `O=C1CC2(CCN(C(=O)c3ccncc3)CC2)Oc2c(Br)cc(Br)cc21` [CBK156437]: 95.7%. As to `COc1ccc2c(c1)C(=O)CC1(CCN(C(=O)/C=C/c3ccc(C)cc3)CC1)O2` [CBK156438], the viability at 28.5 h, 10 µM was found to be 98.3%. For `Cc1ccc(/C=C/C(=O)N2CCC3(CC2)CC(=O)c2cc(Cl)ccc2O3)cc1` [CBK156439], the viability at 28.5 h, 10 µM is 95.1%. With `Cc1c(OCc2ccccc2)ccc2c1OC1(CCN(C(=O)c3ccccn3)CC1)CC2=O` [CBK156441], the viability at 28.5 h, 10 µM stood at 106%. `O=C1CC2(CCN(C(=O)c3ccoc3)CC2)Oc2ccc3ccccc3c21` [CBK156444]: the viability at 28.5 h, 10 µM came out at 91%. Regarding `Cc1c(OCc2ccccc2)ccc2c1OC1(CCN(C(=O)c3ccsc3)CC1)CC2=O` [CBK156445], the viability at 28.5 h, 10 µM stood at 109%. Next, `O=C1CC2(CCN(C(=O)c3ccccc3F)CC2)Oc2c(Cl)cc(Cl)cc21` [CBK156453]: 91.8%.

As to `CC(=O)c1ccc(C(=O)N2CCC3(CC2)CC(=O)c2ccc4ccccc4c2O3)cc1` [CBK156458], the viability at 28.5 h, 10 µM worked out at 104%. On to `COc1cc(OC)c2c(c1)OC1(CCN(C(=O)C3CCCO3)CC1)CC2=O` (stereo not shown) [CBK156476], for which the viability at 28.5 h, 10 µM was 93.3%. Next, `CC(=O)CCCCC(=O)N1CCC2(CC1)CC(=O)c1cc(C)c(C)cc1O2` [CBK156497]: 106%; `COc1cc(OC)c2c(c1)OC1(CCN(C(=O)c3cnc(C)cn3)CC1)CC2=O` [CBK156503]: 105%; `Cc1noc(C)c1C(=O)N1CCC2(CC1)CC(=O)c1cc(Br)ccc1O2` [CBK156508]: 90%. On to `Cc1cc2c(cc1Cl)C(=O)CC1(CCN(C(=O)C3CC(=O)OC3(C)C)CC1)O2` (stereo not shown) [CBK156514], for which the viability at 28.5 h, 10 µM came to 94.8%.

On to `CN1CCC2(CC1)CC(=O)c1cc(-c3ccc(C(=O)N(C)CCC#N)cc3)ccc1O2` [CBK156518], for which the viability at 28.5 h, 10 µM was determined as 89%. As to `Cc1ccc(NC(=O)CCC(=O)N2CCC3(CC2)CC(=O)c2ccccc2O3)cc1` [CBK156524], the viability at 28.5 h, 10 µM was 94.1%. `O=C(CCC(=O)N1CCC2(CC1)CC(=O)c1ccccc1O2)NCC1CCCO1` (stereo not shown) [CBK156525]: the viability at 28.5 h, 10 µM stood at 86.2%. Next, `O=C(COc1ccc(F)cc1)N1CCC2(CCNC2)C1` (stereo not shown) [CBK156691C]: 92.5%. Turning to `O=C(C(c1ccccc1)c1ccccc1)N1CCC2(CCNC2)C1` (stereo not shown) [CBK156729C], the viability at 28.5 h, 10 µM is 92.3%. Next, `Cc1nc(S(=O)(=O)Nc2ccc3[nH]ccc3c2)cn1C` [CBK156800]: 68.3%; `COC(=O)c1ccc2c(c1)C(=O)N(c1ccc(C(=O)OCC(C)C)cc1)C2=O` [CBK156802]: 92.1%.

Consider `O=S(=O)(Nc1ccc2[nH]ccc2c1)c1cccnc1` [CBK156811], for which the viability at 28.5 h, 10 µM was 71%.

For `COc1ccc(S(=O)(=O)N2CCN(C(=O)c3ccc(C(C)(C)C)cc3)CC2)cc1` [CBK157251], the viability at 28.5 h, 10 µM was 111%.

For the molecule `CCCCc1ccc(NC(=S)NC(=O)c2ccc(OC)c(OC)c2)cc1` [CBK157691], the viability at 28.5 h, 10 µM was 100%. Regarding `CCN(CC)C(=O)C1CCN(S(=O)(=O)c2ccc(C)cc2)CC1` [CBK157834], the viability at 28.5 h, 10 µM came to 98.7%. For the molecule `CCNC(=O)c1ccc(-c2ccc(C(=O)N(C)C)cc2)nc1` [CBK158361], the viability at 28.5 h, 10 µM amounted to 91.7%. Take `Cc1ccc(CNC(=O)Cc2ccc(-c3ccc(CN4CCC(C)CC4)cc3)nc2)cc1F` [CBK158402]: the viability at 28.5 h, 10 µM is 97.4%. Consider `Cc1onc(-c2ccccc2)c1C(=O)N1CCN(CCN2CCCC2)CC1` [CBK158558], for which the viability at 28.5 h, 10 µM was 98.6%. For the molecule `CSCCCNC(=O)c1cc(-c2ccc(C(=O)N3CCOCC3)cc2)cnc1N` [CBK158568], the viability at 28.5 h, 10 µM turned out to be 95.5%. With `CN1CCC(N2CCN(C(=O)c3cncc(-c4ccc(C(=O)N5CCOCC5)cc4)c3)CC2)CC1` [CBK158600], the viability at 28.5 h, 10 µM is 115%. Turning to `O=C(NCc1cccs1)c1cncc(-c2ccc(C(=O)N3CCOCC3)cc2)c1` [CBK158617], the viability at 28.5 h, 10 µM is 87.4%.

`CN(C)CCNC(=O)c1cncc(-c2ccc(C(=O)N3CCOCC3)cc2)c1` [CBK158619]: the viability at 28.5 h, 10 µM came to 95.6%. `NS(=O)(=O)c1ccc(CNC(=O)c2cncc(-c3ccc(C(=O)N4CCOCC4)cc3)c2)cc1` [CBK158641]: the viability at 28.5 h, 10 µM amounted to 100%.

`CS(=O)(=O)c1ccc(-c2ccc3c(c2)COC(C2CCN(C(=O)c4ccccc4O)CC2)O3)cc1` (stereo not shown) [CBK158682]: the viability at 28.5 h, 10 µM came out at 85.3%. Then `CCOC(=O)C1CCN(C(=O)c2c(-c3ccccc3)noc2C)CC1` [CBK158704], with 86.3%; and `CCN(CC)C(=O)CN(CCc1ccc(OC)c(OC)c1)C(=O)NCCCSC` [CBK158725], with 94.8%.

`CCN(CC)C(=O)CN(CCc1ccc(OC)c(OC)c1)C(=O)NCCc1c[nH]c2ccccc12` [CBK158741]: the viability at 28.5 h, 10 µM was found to be 91.1%. As to `CCN(CC)C(=O)CN(CCc1ccc(OC)c(OC)c1)C(=O)NCc1c(Cl)cccc1Cl` [CBK158743], the viability at 28.5 h, 10 µM stood at 89.9%. Take `COc1ccc(CCN(Cc2ccc(Cl)c(Cl)c2)C(=O)NCCCSC)cc1OC` [CBK158758]: the viability at 28.5 h, 10 µM worked out at 91.1%.

As to `COc1ccc(CCN(Cc2ccc(Cl)c(Cl)c2)C(=O)NCc2ccc(C#N)cc2)cc1OC` [CBK158771], the viability at 28.5 h, 10 µM turned out to be 100%. Then `CC(C)c1noc(N2CCC(Oc3ccc(-c4ccc(S(C)(=O)=O)cc4)cn3)CC2)n1` [CBK158821], with 84.6%; and `CC(=O)Nc1ccc(-c2ccc(C(=O)N3CCN(C4CCN(C)CC4)CC3)cn2)cc1` [CBK158824], with 96.7%; and `CC(=O)Nc1ccc(-c2ccc(C(=O)NCc3ccc(OC(F)(F)F)cc3)cn2)cc1` [CBK158830], with 98.6%. Then `CC(=O)Nc1ccc(-c2ccc(C(=O)NCC3COc4ccccc4O3)cn2)cc1` (stereo not shown) [CBK158832], with 99.3%; and `CC(=O)Nc1ccc(-c2ccc(C(=O)NCCc3ccc(O)cc3)cn2)cc1` [CBK158840], with 105%.

As to `CN1CCC(N2CCN(C(=O)c3ccc(-c4ccc(S(C)(=O)=O)cc4)nc3)CC2)CC1` [CBK158862], the viability at 28.5 h, 10 µM stood at 91.6%. Next, `CS(=O)(=O)c1ccc(-c2ccc(C(=O)NCc3cccc(C(F)(F)F)c3)cn2)cc1` [CBK158874]: 91.4%. For the molecule `CCNC(=O)c1ccc(-c2ccc(S(C)(=O)=O)cc2)nc1` [CBK158882], the viability at 28.5 h, 10 µM is 91.9%.

Take `CS(=O)(=O)c1ccc(-c2ccc(C(=O)NCc3ccccc3)cn2)cc1` [CBK158885]: the viability at 28.5 h, 10 µM was 89.2%.

Take `Cc1cc(CNC(=O)N2CCN(CCc3ccccc3)CC2)no1` [CBK158898]: the viability at 28.5 h, 10 µM is 92.7%.

On to `O=C(NCc1cccc(C(F)(F)F)c1)N1CCN(CCc2ccccc2)CC1` [CBK158902], for which the viability at 28.5 h, 10 µM worked out at 90.1%. Take `O=C(NC(c1ccccc1)c1ccccc1)N1CCN(CCc2ccccc2)CC1` [CBK158905]: the viability at 28.5 h, 10 µM was 101%. In the case of `O=C(NCc1cccnc1)N1CCN(CCc2ccccc2)CC1` [CBK158906], the viability at 28.5 h, 10 µM turned out to be 93.7%. As for `COCCNC(=O)N1CCN(CCc2ccccc2)CC1` [CBK158909], the viability at 28.5 h, 10 µM was determined as 97.3%.

Regarding `COc1ccc(CCNC(=O)N2CCN(CCc3ccccc3)CC2)cc1OC` [CBK158915], the viability at 28.5 h, 10 µM was determined as 102%.

Regarding `O=C(NCc1ccc(Cl)cc1)N1CCN(CCc2ccccc2)CC1` [CBK158922], the viability at 28.5 h, 10 µM came to 90.7%. Turning to `O=C1CCCN1CCCNC(=O)N1CCN(CCc2ccccc2)CC1` [CBK158932], the viability at 28.5 h, 10 µM stood at 91%.

As to `CC(NC(=O)N1CCN(CCc2ccccc2)CC1)c1ccccc1` (stereo not shown) [CBK158935], the viability at 28.5 h, 10 µM stood at 85.1%. On to `O=C(Nc1cccnc1)N1CCN(CCc2ccccc2)CC1` [CBK158937], for which the viability at 28.5 h, 10 µM was determined as 95.4%.

As to `CCN(CC)CCN(C(=O)Nc1ccc(C(N)=O)cc1)C(C)c1ccc(OC)c(OC)c1` (stereo not shown) [CBK158962], the viability at 28.5 h, 10 µM came to 108%.

For `COc1ccc(C(C)N(CCN2CCOCC2)C(=O)NCc2cccnc2)cc1OC` (stereo not shown) [CBK158986], the viability at 28.5 h, 10 µM was determined as 114%. Then `CCN(CC)CCN(Cc1ccc2c(c1)OCO2)C(=O)Nc1cccc(NC(C)=O)c1` [CBK159042], with 108%; and `CCN(CC)CCN(Cc1ccc2c(c1)OCO2)C(=O)Nc1ccc(C)cc1` [CBK159059], with 89.3%; and `CC(C)CN(Cc1ccc2c(c1)OCO2)C(=O)NCc1ccc(Cl)c(Cl)c1` [CBK159069], with 95.3%. In the case of `CC(C)CN(Cc1ccc2c(c1)OCO2)C(=O)NCc1ccc2c(c1)OCO2` [CBK159071], the viability at 28.5 h, 10 µM was found to be 96.4%.
